According to ChEMBL document CHEMBL4808180, “Identification of 2,2-Dimethylbutanoic Acid (HST5040), a Clinical Development Candidate for the Treatment of Propionic Acidemia and Methylmalonic Acidemia” (J Med Chem, 2021):
Activity calls are given as the source filed them. The rule behind the calls is not given here.

Key:
[1] = Protein binding in Sprague-Dawley rat plasma at 40 uM incubated for 4 hrs by equilibrium dialysis; format: ADME, cell-free
[2] = Tmax in Sprague-Dawley rat at 10 mg/kg, po; format: ADME, organism-based; settings: in vivo
[3] = Drug metabolism in Sprague-Dawley rat assessed as beta-oxidation by measuring phase1 metabolite formation at 10 mg/kg administered single dose using radiolabeled compound; format: ADME, organism-based; settings: in vivo
[4] = Reduction of acetyl carnitine in human hepatocytes derived from propionic acidemia patient at 30 uM pretreated for 30 mins followed by 13C-isoleucine addition and measured after 1 hr by MS/MS analysis relative to control; format: functional, Hepatocyte; design: scale not given: the % may be the effect or the level left; settings: time 90 min, 1.5 h
[5] = Cmax in Sprague-Dawley rat at 50 mg/kg, po; format: ADME, organism-based; design: route oral, dose 50 mg/kg; settings: in vivo
[6] = Oral bioavailability in Sprague-Dawley rat at 200 mg/kg; format: ADME, organism-based; settings: in vivo
[7] = Half life in CD1 mouse at 30 mg/kg, iv; format: ADME, organism-based; settings: in vivo
[8] = Drug metabolism in Sprague-Dawley rat feces assessed as HST5040-glucuronide metabolite formation at 10 mg/kg administered as single dose by LC/MS analysis; format: ADME, organism-based; settings: in vivo
[9] = Induction of toxicity in minipig assessed as increase in number of cells with cytoplasmic vacuoles in renal tubules at >=50 mg/kg/day; format: organism-based, Sus scrofa domesticus; settings: pig, in vivo
[10] = Oral bioavailability in CD1 mouse at 30 mg/kg; format: ADME, organism-based; settings: in vivo
[11] = Reduction of propionyl-CoA in human hepatocytes derived from propionic acidemia patient at 30 uM pretreated for 30 mins followed by 13C-isoleucine addition and measured after 1 hr by MS/MS analysis relative to control; format: functional, Hepatocyte; design: scale not given: the % may be the effect or the level left; settings: time 90 min, 1.5 h
[12] = Cmax in CD1 mouse at 30 mg/kg, po; format: ADME, organism-based; design: route oral, dose 30 mg/kg; settings: in vivo
[13] = Drug metabolism in Sprague-Dawley rat plasma assessed as HST5040-glucuronide metabolite formation at 10 mg/kg administered as single dose by LC/MS analysis; format: ADME, organism-based; settings: in vivo
[14] = Induction of toxicity in minipig assessed as increase in vacuole size in the epithelial cells of renal tubules at >=50 mg/kg; format: organism-based, Sus scrofa domesticus; settings: pig, in vivo
[15] = Drug metabolism in human hepatocytes derived from propionic acidemia patient assessed as formation of 2,2-dimethylbutanoic acid-CoA pretreated for 30 mins followed by 13C-isoleucine addition and measured after 1 hr by MS/MS analysis relative to control; format: ADME, cell-based; settings: Hepatocyte
Hepatocyte = assay: Cytotoxicity against human hepatocytes assessed as reduction in cell viability using radiolabeled compound; format: cell-based
[16] = molecular target: Solute carrier family 22 member 2 (Homo sapiens) (UniProt O15244); assay: Inhibition of human OCT2 assessed as reduction in OCT2-mediated metformin transport at 14900 uM relative to control
[17] = Oral bioavailability in CD1 mouse at 300 mg/kg; format: ADME, organism-based; settings: in vivo
[18] = Oral bioavailability in Sprague-Dawley rat at 50 mg/kg; format: ADME, organism-based; settings: in vivo
[19] = Tmax in CD1 mouse at 300 mg/kg, po; format: ADME, organism-based; settings: in vivo
[20] = Stability in rat hepatocytes assessed as unchanged compound at 50 uM measured after 4 hrs; format: ADME, cell-based, Hepatocyte; settings: read-out: Stabilty
OATP1B3 = molecular target: T1, OATP1B3 (Homo sapiens, UniProt Q9NPD5); assay: Inhibition of human OATP1B3 assessed as reduction in OATP1B3-mediated E217betaG transport at 14900 uM relative to control; settings: not told, probe E217betaG
T1 sequence (Q9NPD5 whole entry): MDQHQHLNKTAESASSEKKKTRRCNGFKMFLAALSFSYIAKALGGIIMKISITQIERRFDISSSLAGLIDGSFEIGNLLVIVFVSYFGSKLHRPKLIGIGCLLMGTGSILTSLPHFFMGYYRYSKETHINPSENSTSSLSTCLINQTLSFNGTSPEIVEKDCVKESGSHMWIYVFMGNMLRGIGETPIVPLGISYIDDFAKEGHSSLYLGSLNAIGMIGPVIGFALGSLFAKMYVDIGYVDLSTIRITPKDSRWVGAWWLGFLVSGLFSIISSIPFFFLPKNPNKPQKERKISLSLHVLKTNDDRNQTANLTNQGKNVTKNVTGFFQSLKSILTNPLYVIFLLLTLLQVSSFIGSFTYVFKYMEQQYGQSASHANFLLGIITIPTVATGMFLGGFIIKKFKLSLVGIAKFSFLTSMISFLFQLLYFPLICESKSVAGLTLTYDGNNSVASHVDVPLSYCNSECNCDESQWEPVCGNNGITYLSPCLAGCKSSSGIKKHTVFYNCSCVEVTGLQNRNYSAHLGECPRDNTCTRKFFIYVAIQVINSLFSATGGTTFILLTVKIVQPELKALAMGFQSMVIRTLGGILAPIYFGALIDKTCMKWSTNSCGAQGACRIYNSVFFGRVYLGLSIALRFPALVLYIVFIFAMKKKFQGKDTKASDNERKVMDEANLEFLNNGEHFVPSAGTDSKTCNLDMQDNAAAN

[21] = Drug metabolism in Sprague-Dawley rat feces assessed as HST5040-glycine metabolite formation at 10 mg/kg administered as single dose by LC/MS analysis; format: ADME, organism-based; settings: in vivo
OAT1 = molecular target: T2, OAT1 (Homo sapiens, UniProt Q4U2R8); assay: Inhibition of human OAT1 assessed as reduction in OAT1-mediated tenofovir transport at 14900 uM relative to control; settings: not told, probe tenofovir
T2 sequence (Q4U2R8 whole entry): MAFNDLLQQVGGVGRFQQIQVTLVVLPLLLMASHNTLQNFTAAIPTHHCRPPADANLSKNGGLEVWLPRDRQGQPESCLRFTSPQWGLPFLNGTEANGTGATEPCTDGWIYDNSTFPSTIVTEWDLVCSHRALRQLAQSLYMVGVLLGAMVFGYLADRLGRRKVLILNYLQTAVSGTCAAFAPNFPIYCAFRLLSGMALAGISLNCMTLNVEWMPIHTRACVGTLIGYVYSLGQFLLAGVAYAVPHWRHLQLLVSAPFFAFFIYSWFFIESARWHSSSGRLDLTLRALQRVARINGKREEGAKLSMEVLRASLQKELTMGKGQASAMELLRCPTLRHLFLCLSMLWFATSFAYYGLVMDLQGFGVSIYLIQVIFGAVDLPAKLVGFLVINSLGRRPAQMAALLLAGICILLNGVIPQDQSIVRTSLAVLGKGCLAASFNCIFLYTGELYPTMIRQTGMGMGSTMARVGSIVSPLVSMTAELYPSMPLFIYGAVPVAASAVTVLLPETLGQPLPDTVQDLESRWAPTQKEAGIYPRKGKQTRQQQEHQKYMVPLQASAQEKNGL

[22] = Drug metabolism in human hepatocytes assessed as formation of 2,2-dimethylbutanoic acid-CoA pretreated for 30 mins followed by 13C-isoleucine addition and measured after 1 hr by MS/MS analysis relative to control; format: ADME, cell-based; settings: Hepatocyte
[23] = Drug excretion in Gottingen minipig feces at 10 mg/kg, po using radiolabeled compound by quantitative whole-body autoradiography; format: ADME, organism-based, Sus scrofa domesticus; settings: pig, in vivo
[24] = Tmax in Sprague-Dawley rat at 50 mg/kg, po; format: ADME, organism-based; settings: in vivo
[25] = Reduction of CoASH in human hepatocytes derived from propionic acidemia patient at 30 uM pretreated for 30 mins followed by 13C-isoleucine addition and measured after 1 hr by MS/MS analysis relative to control; format: functional, Hepatocyte; design: scale not given: the % may be the effect or the level left; settings: time 90 min, 1.5 h

Sequence of Solute carrier family 22 member 2 (Homo sapiens) (O15244 whole entry, looked up): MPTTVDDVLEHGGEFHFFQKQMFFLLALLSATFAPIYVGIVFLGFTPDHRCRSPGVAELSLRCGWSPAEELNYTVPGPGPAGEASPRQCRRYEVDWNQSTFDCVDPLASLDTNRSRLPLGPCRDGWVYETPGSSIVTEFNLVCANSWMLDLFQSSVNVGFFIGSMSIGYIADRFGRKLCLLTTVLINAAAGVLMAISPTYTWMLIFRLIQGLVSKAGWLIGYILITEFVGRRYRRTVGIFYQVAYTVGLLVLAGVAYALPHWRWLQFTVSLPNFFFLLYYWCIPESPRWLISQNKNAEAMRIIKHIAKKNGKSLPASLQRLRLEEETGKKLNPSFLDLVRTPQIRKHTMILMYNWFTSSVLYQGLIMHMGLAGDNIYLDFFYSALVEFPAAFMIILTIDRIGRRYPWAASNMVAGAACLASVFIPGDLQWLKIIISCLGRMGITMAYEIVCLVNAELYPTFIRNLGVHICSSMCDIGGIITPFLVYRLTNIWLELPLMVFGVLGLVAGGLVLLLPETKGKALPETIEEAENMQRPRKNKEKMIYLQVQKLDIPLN

**Q.** What does the source list for `CCC(C)(C)C(=O)O` [DIMEBUTIC ACID]?
**A.** PPB [1]: 0%; Tmax [2]: 15 min; Drug metabolism [3]: Metabolite_Notdetected; Activity [4]: 54%; Cmax [5]: 21900 ng/mL; bioavailability [6]: 126%; half-life [7]: 49.9 min; Drug metabolism [8]: Metabolite_Detected; Activity [9]: Toxic; bioavailability [10]: 53.4%; Activity [11]: -78.8%; Cmax [12]: 33700 ng/mL; Drug metabolism [13]: Metabolite_Detected; Activity [14]: Toxic; EC50 [15]: 3 µM; Activity (Hepatocyte): Non-Toxic; inhibition [16]: inactive; F [17]: 177.5%; bioavailability [18]: 68.3%; Tmax [19]: 30 min; remaining at 4 h, 50 µM [20]: 86%; inhibition at 14900 µM (OATP1B3): 31.5%; Drug metabolism [21]: Metabolite_Detected; inhibition at 14900 µM (OAT1): 83.2%; EC50 [22]: 8.3 µM; Drug excretion [23]: 2.26%; Tmax [24]: 20 min; Activity [25]: -31.3%
